Assay results from ChEMBL document CHEMBL1255419, “Pharmacokinetic-pharmacodynamic assessment of faropenem in a lethal murine Bacillus anthracis inhalation postexposure prophylaxis model” (Antimicrob Agents Chemother, 2010).
≈ marks a conversion by molar mass, not a printed value. Calls of active or inactive are those of the source. The rule behind the calls is not given here.

Assays:
Bacillus anthracis [1] = test: microbe, parasite or virus in culture; type: functional
[2] = Plasma protein binding in CD1 mouse at 5 ug/ml by ultrafiltration technique; type: ADME, cell-free; details: read-out: PPB (converted)
[3] = Plasma protein binding in CD1 mouse at 1000 ug/ml by ultrafiltration technique; type: ADME, cell-free; details: read-out: PPB (converted)
Bacillus anthracis [4] = test: Antibacterial activity against Bacillus anthracis Ames infected in BALB/c mouse assessed as decrease in bacterial load in lungs at 20 mg/kg, ip administered 24 hrs postinfection at 4 hrs interval for 14 days measured on day 27; type: functional, organism-based; set-up: dose 20 mg/kg
Bacillus anthracis [5] = test: Antibacterial activity against Bacillus anthracis Ames infected in BALB/c mouse assessed as survival rate at 10 mg/kg, ip administered 24 hrs postinfection at 4 hrs interval for 14 days measured on day 27; type: functional; details: route intraperitoneal
Bacillus anthracis [6] = test: Antibacterial activity against Bacillus anthracis Ames infected in BALB/c mouse assessed as survival rate at 20 mg/kg, ip administered 24 hrs postinfection at 4 hrs interval for 14 days measured on day 27; type: functional; details: route intraperitoneal
Bacillus anthracis [7] = test: Antibacterial activity against Bacillus anthracis Ames infected in BALB/c mouse assessed as survival rate at 40 mg/kg, ip administered 24 hrs postinfection at 4 hrs interval for 14 days measured on day 27; type: functional; details: route intraperitoneal
Bacillus anthracis [8] = test: Antibacterial activity against Bacillus anthracis Ames infected in BALB/c mouse assessed as survival rate at 80 mg/kg, ip administered 24 hrs postinfection at 4 hrs interval for 14 days measured on day 27; type: functional; details: route intraperitoneal
Bacillus anthracis [9] = test: Antibacterial activity against Bacillus anthracis Ames infected in BALB/c mouse assessed as survival rate at 10 mg/kg, ip administered 24 hrs postinfection at 6 hrs interval for 14 days measured on day 27; type: functional; details: route intraperitoneal
Bacillus anthracis [10] = test: Antibacterial activity against Bacillus anthracis Ames infected in BALB/c mouse assessed as survival rate at 20 mg/kg, ip administered 24 hrs postinfection at 6 hrs interval for 14 days measured on day 27; type: functional; details: route intraperitoneal
Bacillus anthracis [11] = test: Antibacterial activity against Bacillus anthracis Ames infected in BALB/c mouse assessed as survival rate at 40 mg/kg, ip administered 24 hrs postinfection at 6 hrs interval for 14 days measured on day 27; type: functional; details: route intraperitoneal
Bacillus anthracis [12] = test: Antibacterial activity against Bacillus anthracis Ames infected in BALB/c mouse assessed as survival rate at 80 mg/kg, ip administered 24 hrs postinfection at 6 hrs interval for 14 days measured on day 27; type: functional; details: route intraperitoneal
Bacillus anthracis [13] = test: Antibacterial activity against Bacillus anthracis Ames infected in BALB/c mouse assessed as survival rate at 10 mg/kg, ip administered 24 hrs postinfection at 12 hrs interval for 14 days measured on day 27; type: functional; details: route intraperitoneal
Bacillus anthracis [14] = test: Antibacterial activity against Bacillus anthracis Ames infected in BALB/c mouse assessed as survival rate at 20 mg/kg, ip administered 24 hrs postinfection at 12 hrs interval for 14 days measured on day 27; type: functional; details: route intraperitoneal
Bacillus anthracis [15] = test: Antibacterial activity against Bacillus anthracis Ames infected in BALB/c mouse assessed as survival rate at 40 mg/kg, ip administered 24 hrs postinfection at 12 hrs interval for 14 days measured on day 27; type: functional; details: route intraperitoneal
Bacillus anthracis [16] = test: Antibacterial activity against Bacillus anthracis Ames infected in BALB/c mouse assessed as survival rate at 80 mg/kg, ip administered 24 hrs postinfection at 12 hrs interval for 14 days measured on day 27; type: functional; details: route intraperitoneal
[17] = f%TMIC in ip dosed Bacillus anthracis Ames infected BALB/c mouse model at ED50 administered 24 hrs postinfection at 4 hrs interval for 14 days measured on day 27; type: functional
[18] = f%TMIC in ip dosed Bacillus anthracis Ames infected BALB/c mouse model at ED90 administered 24 hrs postinfection at 4 hrs interval for 14 days measured on day 27; type: functional
[19] = f%TMIC in ip dosed Bacillus anthracis Ames infected BALB/c mouse model at ED99 administered 24 hrs postinfection at 4 hrs interval for 14 days measured on day 27; type: functional
Streptococcus pneumoniae [20] = test: Antibacterial activity against Streptococcus pneumoniae clinical isolates; type: functional
Streptococcus pneumoniae [21] = test: f%TMIC in Streptococcus pneumoniae infected pharmacokinetic-pharmacodynamic model; type: functional
[22] = f%TMIC in Bacillus anthracis Ames infected human model at 600 […], BID; type: functional
Bacillus anthracis [23] = test: f%TMIC in Bacillus anthracis Ames infected pharmacokinetic-pharmacodynamic model at 0.12 ug/ml; type: functional
Bacillus anthracis [24] = test: f%TMIC in Bacillus anthracis Ames infected pharmacokinetic-pharmacodynamic model at 0.25 ug/ml; type: functional
Bacillus anthracis [25] = test: f%TMIC in Bacillus anthracis Ames infected pharmacokinetic-pharmacodynamic model at 0.5 ug/ml; type: functional
Bacillus anthracis [26] = test: microbe, parasite or virus in culture; type: functional; remark: listed apart in the source
Bacillus anthracis [27] = test: microbe, parasite or virus in culture; type: functional; remark: listed apart in the source
Bacillus anthracis [28] = test: Antibacterial activity against beta-lactamase Bla1 and Bla2-producing Bacillus anthracis Sterne by broth microdilution method; type: functional
Bacillus anthracis [29] = test: microbe, parasite or virus in culture; type: functional; remark: listed apart in the source
Bacillus anthracis [30] = test: microbe, parasite or virus in culture; type: functional; remark: listed apart in the source
Bacillus anthracis [31] = test: microbe, parasite or virus in culture; type: functional; remark: listed apart in the source
Bacillus anthracis [32] = test: microbe, parasite or virus in culture; type: functional; remark: listed apart in the source
Bacillus anthracis [33] = test: microbe, parasite or virus in culture; type: functional; remark: listed apart in the source
Bacillus anthracis [34] = test: microbe, parasite or virus in culture; type: functional; remark: listed apart in the source
Bacillus anthracis [35] = test: microbe, parasite or virus in culture; type: functional; remark: listed apart in the source
Bacillus anthracis [36] = test: microbe, parasite or virus in culture; type: functional; remark: listed apart in the source
Bacillus anthracis [37] = test: microbe, parasite or virus in culture; type: functional; remark: listed apart in the source
Bacillus anthracis [38] = test: microbe, parasite or virus in culture; type: functional; remark: listed apart in the source
Bacillus anthracis [39] = test: microbe, parasite or virus in culture; type: functional; remark: listed apart in the source
Bacillus anthracis [40] = test: microbe, parasite or virus in culture; type: functional; remark: listed apart in the source
Bacillus anthracis [41] = test: microbe, parasite or virus in culture; type: functional; remark: listed apart in the source
Bacillus anthracis [42] = test: microbe, parasite or virus in culture; type: functional; remark: listed apart in the source
Bacillus anthracis [43] = test: microbe, parasite or virus in culture; type: functional; remark: listed apart in the source
Bacillus anthracis [44] = test: microbe, parasite or virus in culture; type: functional; remark: listed apart in the source
Bacillus anthracis [45] = test: microbe, parasite or virus in culture; type: functional; remark: listed apart in the source
Bacillus anthracis [46] = test: microbe, parasite or virus in culture; type: functional; remark: listed apart in the source
Bacillus anthracis [47] = test: microbe, parasite or virus in culture; type: functional; remark: listed apart in the source
Bacillus anthracis [48] = test: microbe, parasite or virus in culture; type: functional; remark: listed apart in the source
Bacillus anthracis [49] = test: microbe, parasite or virus in culture; type: functional; remark: listed apart in the source
Bacillus anthracis [50] = test: microbe, parasite or virus in culture; type: functional; remark: listed apart in the source
Bacillus anthracis [51] = test: microbe, parasite or virus in culture; type: functional; remark: listed apart in the source
Bacillus anthracis [52] = test: microbe, parasite or virus in culture; type: functional; remark: listed apart in the source
Bacillus anthracis [53] = test: microbe, parasite or virus in culture; type: functional; remark: listed apart in the source
Homo sapiens [54] = species on record: Homo sapiens; test: Plasma protein binding in human at 5 ug/ml by ultrafiltration technique; details: read-out: PPB (converted)
Homo sapiens [55] = species on record: Homo sapiens; test: Plasma protein binding in human at 1000 ug/ml by ultrafiltration technique; details: read-out: PPB (converted)

Cc1oc(=O)oc1COC(=O)C1=C([C@H]2CCCO2)S[C@@H]2[C@@H]([C@@H](C)O)C(=O)N12 [FAROPENEM MEDOXOMIL]
MIC (Bacillus anthracis [1]): 0.25 µg/mL (≈ 0.629 µM)
fraction unbound at 5 ug/ml [2]: 0.15
fraction unbound at 1000 ug/ml [3]: 0.82
inhibition (Bacillus anthracis [4]): Active
survival at 10 mg/kg (Bacillus anthracis [5]): 77.8%
survival at 20 mg/kg (Bacillus anthracis [6]): 80%
survival at 40 mg/kg (Bacillus anthracis [7]): 80%
survival at 80 mg/kg (Bacillus anthracis [8]): 100%
survival at 10 mg/kg (Bacillus anthracis [9]): 30%
survival at 20 mg/kg (Bacillus anthracis [10]): 60%
survival at 40 mg/kg (Bacillus anthracis [11]): 90%
survival at 80 mg/kg (Bacillus anthracis [12]): 90%
survival at 10 mg/kg (Bacillus anthracis [13]): 0%
survival at 20 mg/kg (Bacillus anthracis [14]): 10%
survival at 40 mg/kg (Bacillus anthracis [15]): 20%
survival at 80 mg/kg (Bacillus anthracis [16]): 22.2%
fT>MIC [17]: 10.6%
fT>MIC [18]: 13.4%
fT>MIC [19]: 16.4%
MIC (Streptococcus pneumoniae [20]): 0.008 µg/mL (≈ 0.0201 µM)
fT>MIC (Streptococcus pneumoniae [21]): 13.9%
fT>MIC [22]: 62%
fT>MIC (Bacillus anthracis [23]): 51%
fT>MIC (Bacillus anthracis [24]): 44%
fT>MIC (Bacillus anthracis [25]): 32%
MIC (Bacillus anthracis [26]): ≤ 0.06 µg/mL
MIC (Bacillus anthracis [27]): 0.25 µg/mL (≈ 0.629 µM)
MIC (Bacillus anthracis [28]): ≤ 0.06 µg/mL
MIC (Bacillus anthracis [29]): > 64 µg/mL
MIC (Bacillus anthracis [30]): ≤ 0.06 µg/mL
MIC (Bacillus anthracis [31]): 0.06 µg/mL (≈ 0.151 µM)
MIC (Bacillus anthracis [32]): 0.12 µg/mL (≈ 0.302 µM)
MIC (Bacillus anthracis [33]): ≤ 0.06 µg/mL
MIC (Bacillus anthracis [34]): 0.25 µg/mL (≈ 0.629 µM)
MIC (Bacillus anthracis [35]): 0.12 µg/mL (≈ 0.302 µM)
MIC (Bacillus anthracis [36]): 0.12 µg/mL (≈ 0.302 µM)
MIC (Bacillus anthracis [37]): 0.12 µg/mL (≈ 0.302 µM)
MIC (Bacillus anthracis [38]): 0.12 µg/mL (≈ 0.302 µM)
MIC (Bacillus anthracis [39]): 0.12 µg/mL (≈ 0.302 µM)
MIC (Bacillus anthracis [40]): 0.12 µg/mL (≈ 0.302 µM)
MIC (Bacillus anthracis [41]): ≤ 0.06 µg/mL
MIC (Bacillus anthracis [42]): 0.12 µg/mL (≈ 0.302 µM)
MIC (Bacillus anthracis [43]): 0.25 µg/mL (≈ 0.629 µM)
MIC (Bacillus anthracis [44]): 1 µg/mL (≈ 2.52 µM)
MIC (Bacillus anthracis [45]): 0.12 µg/mL (≈ 0.302 µM)
MIC (Bacillus anthracis [46]): 0.12 µg/mL (≈ 0.302 µM)
MIC (Bacillus anthracis [47]): 0.12 µg/mL (≈ 0.302 µM)
MIC (Bacillus anthracis [48]): 0.5 µg/mL (≈ 1.26 µM)
MIC (Bacillus anthracis [49]): ≤ 0.06 µg/mL
MIC (Bacillus anthracis [50]): ≤ 0.06 µg/mL
MIC (Bacillus anthracis [51]): ≤ 0.06 µg/mL
MIC (Bacillus anthracis [52]): 0.12 µg/mL (≈ 0.302 µM)
MIC (Bacillus anthracis [53]): ≤ 0.06 µg/mL
fraction unbound at 5 ug/ml (Homo sapiens [54]): 0.1
fraction unbound at 1000 ug/ml (Homo sapiens [55]): 0.787
